≈ marks a conversion by molar mass, not a printed value.
Details: for solubility: 22 °C

Row | Compound | logP | solubility [µM]
1 | CCCCNC(=O)COC(=O)c1ccccc1 | 2.36 | 1740 (≈ 410 µg/mL)
2 | CC(O)CN(CC(C)O)C(=O)COC(=O)c1ccccc1 (stereo not drawn) | 0.66 | –
3 | O=C(OCC(=O)N1CCCCC1)c1ccccc1 | – | 3150 (≈ 780 µg/mL)
4 | CC(NC(=O)COC(=O)c1ccccc1)C(N)=O (stereo not drawn) | 0.42 | –
5 | CCCCCCNC(=O)COC(=O)c1ccccc1 | 2.81 | 125 (≈ 33 µg/mL)
6 | CN(C)C(=O)COC(=O)c1ccccc1 | – | 42500 (≈ 8800 µg/mL)
7 | O=C(OCC(=O)N1CCCCCC1)c1ccccc1 | – | 2870 (≈ 750 µg/mL)
8 | CCCCN(CCCC)C(=O)COC(=O)c1ccccc1 | – | 275 (≈ 80 µg/mL)
9 | CC(C)NC(=O)COC(=O)c1ccccc1 | 1.73 | 1850 (≈ 410 µg/mL)
10 | COCCN(CCOC)C(=O)COC(=O)c1ccccc1 | 1.28 | –
11 | CCCC(=O)OCOC(=O)c1ccccc1OC(C)=O | 2.5 | –
12 | O=C(COC(=O)c1ccccc1)NC(CO)(CO)CO | 0.25 | –
13 | O=C(OCC(=O)N1CCC1C(=O)O)c1ccccc1 (stereo not drawn) | 0.79 | –
14 | O=C(OCC(=O)N1CCOCC1)c1ccccc1 | – | 16900 (≈ 4200 µg/mL)
15 | CNC(=O)COC(=O)c1ccccc1 | 0.99 | 19200 (≈ 3700 µg/mL)
16 | NC(=O)C1CCCN1C(=O)COC(=O)c1ccccc1 (stereo not drawn) | 0.2 | –

Row | Compound | logP | solubility [µM]
17 | CC(=O)N(C)CCOC(=O)c1ccccc1 | 1.24 | –
18 | O=C(OCC(=O)N1CCC(O)CC1)c1ccccc1 | 0.63 | 44800 (≈ 11800 µg/mL)
19 | C[C@H](NC(=O)COC(=O)c1ccccc1)C(N)=O | – | 1920 (≈ 480 µg/mL)
20 | CC(=O)Oc1ccccc1C(=O)OCCN(C)C(C)=O | 1.46 | –
21 | CCCNC(=O)COC(=O)c1ccccc1 | 1.88 | 2890 (≈ 640 µg/mL)
22 | CC(=O)N(C)C(=O)COC(=O)c1ccccc1 | 1.58 | 1360 (≈ 320 µg/mL)
23 | C=CCN(CC=C)C(=O)COC(=O)c1ccccc1 | – | 2740 (≈ 710 µg/mL)
24 | CCCCCCN(C)C(=O)COC(=O)c1ccccc1 | 2.99 | –
25 | CCNC(=O)COC(=O)c1ccccc1 | 1.28 | 5790 (≈ 1200 µg/mL)
26 | CCCOC(=O)n1c(-c2cscn2)nc2ccccc21 | 2.98 | –
27 | CC(=O)NC(=O)COC(=O)c1ccccc1 | 1.24 | 3980 (≈ 880 µg/mL)
28 | NC(=O)COC(=O)c1ccccc1 | 0.69 | 22900 (≈ 4100 µg/mL)
29 | CCN(CC)C(=O)C(C)OC(=O)c1ccccc1 (stereo not drawn) | 2.3 | –
30 | CCN(CC)C(=O)COC(=O)c1ccccc1 | – | 8500 (≈ 2000 µg/mL)
31 | CCCCCCN(CCCCCC)C(=O)COC(=O)c1ccccc1 | 6.53 | –
32 | CC(C)(C)NC(=O)COC(=O)c1ccccc1 | 2.26 | 1360 (≈ 320 µg/mL)
